Data set [1] in a line: Half life in stimulated gastric fluid of pH 1.0. As to conditions: simulated gastric fluid.
Data set [2] addresses T1, Prostaglandin G/H synthase 1 (Ovis aries, UniProt P05979).
T1 sequence (P05979 whole entry): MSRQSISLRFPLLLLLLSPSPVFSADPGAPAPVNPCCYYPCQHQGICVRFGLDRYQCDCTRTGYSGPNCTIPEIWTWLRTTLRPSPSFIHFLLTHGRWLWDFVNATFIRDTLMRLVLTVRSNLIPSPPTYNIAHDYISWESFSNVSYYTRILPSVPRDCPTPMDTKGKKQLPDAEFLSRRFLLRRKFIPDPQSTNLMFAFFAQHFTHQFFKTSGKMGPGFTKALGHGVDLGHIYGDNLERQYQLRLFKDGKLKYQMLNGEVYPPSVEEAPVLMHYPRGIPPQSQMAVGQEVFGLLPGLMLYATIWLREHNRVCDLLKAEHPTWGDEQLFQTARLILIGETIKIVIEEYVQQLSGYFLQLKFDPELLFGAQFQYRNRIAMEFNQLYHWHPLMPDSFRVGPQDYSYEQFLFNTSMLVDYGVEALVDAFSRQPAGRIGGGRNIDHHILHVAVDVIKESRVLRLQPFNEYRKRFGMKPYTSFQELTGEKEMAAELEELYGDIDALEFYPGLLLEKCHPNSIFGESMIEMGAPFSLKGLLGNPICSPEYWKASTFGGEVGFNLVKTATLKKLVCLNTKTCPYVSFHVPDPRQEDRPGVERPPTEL

Data set [3] has as its target T2, Prostaglandin G/H synthase 2 (Mus musculus, UniProt Q05769).
T2 sequence (Q05769 whole entry): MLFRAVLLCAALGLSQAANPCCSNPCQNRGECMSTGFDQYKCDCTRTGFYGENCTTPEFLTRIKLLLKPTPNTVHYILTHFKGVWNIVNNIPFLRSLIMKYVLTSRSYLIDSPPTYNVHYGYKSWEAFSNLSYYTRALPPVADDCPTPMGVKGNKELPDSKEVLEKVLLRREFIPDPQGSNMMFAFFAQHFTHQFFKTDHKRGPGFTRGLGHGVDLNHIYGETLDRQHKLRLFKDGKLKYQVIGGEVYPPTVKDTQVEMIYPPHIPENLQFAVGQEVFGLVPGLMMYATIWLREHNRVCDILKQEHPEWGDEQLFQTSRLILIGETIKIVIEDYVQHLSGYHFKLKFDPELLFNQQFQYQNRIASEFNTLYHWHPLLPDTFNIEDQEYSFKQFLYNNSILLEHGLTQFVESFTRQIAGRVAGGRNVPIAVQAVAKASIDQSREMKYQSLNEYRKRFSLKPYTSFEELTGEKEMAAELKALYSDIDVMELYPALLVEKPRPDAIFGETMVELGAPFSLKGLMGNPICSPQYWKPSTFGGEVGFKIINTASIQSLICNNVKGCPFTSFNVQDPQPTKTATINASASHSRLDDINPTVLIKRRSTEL

In another data set the test system is HEK293. The data set is described as follows: cells. As to conditions: Homo sapiens, HEK293, 72 h.
For the next data set, the system named is Raji. In words: cells. As to conditions: Homo sapiens, 72 h.
The target in data set [4] is Prostaglandin G/H synthase 1 (Homo sapiens) (UniProt P23219). In words: Inhibition of human COX1.
Sequence of Prostaglandin G/H synthase 1 (Homo sapiens) (P23219 whole entry): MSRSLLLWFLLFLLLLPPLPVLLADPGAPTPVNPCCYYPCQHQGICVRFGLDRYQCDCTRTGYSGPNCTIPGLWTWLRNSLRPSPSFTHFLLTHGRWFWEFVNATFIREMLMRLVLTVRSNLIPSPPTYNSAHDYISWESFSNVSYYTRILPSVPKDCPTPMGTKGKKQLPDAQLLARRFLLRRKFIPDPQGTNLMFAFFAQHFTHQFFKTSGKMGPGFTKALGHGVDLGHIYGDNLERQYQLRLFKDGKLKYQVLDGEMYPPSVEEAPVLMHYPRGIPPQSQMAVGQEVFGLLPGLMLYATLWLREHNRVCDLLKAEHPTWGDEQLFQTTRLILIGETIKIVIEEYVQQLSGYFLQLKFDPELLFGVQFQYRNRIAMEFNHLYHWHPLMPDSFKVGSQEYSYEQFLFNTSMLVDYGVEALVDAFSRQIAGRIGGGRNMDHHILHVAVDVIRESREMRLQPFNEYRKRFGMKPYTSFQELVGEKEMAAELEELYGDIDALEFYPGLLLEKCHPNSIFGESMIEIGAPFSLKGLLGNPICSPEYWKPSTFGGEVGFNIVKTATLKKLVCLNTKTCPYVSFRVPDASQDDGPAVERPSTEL
Data set [5] addresses T3, Prostaglandin G/H synthase 2 (Homo sapiens) (UniProt P35354).
T3 sequence (whole entry): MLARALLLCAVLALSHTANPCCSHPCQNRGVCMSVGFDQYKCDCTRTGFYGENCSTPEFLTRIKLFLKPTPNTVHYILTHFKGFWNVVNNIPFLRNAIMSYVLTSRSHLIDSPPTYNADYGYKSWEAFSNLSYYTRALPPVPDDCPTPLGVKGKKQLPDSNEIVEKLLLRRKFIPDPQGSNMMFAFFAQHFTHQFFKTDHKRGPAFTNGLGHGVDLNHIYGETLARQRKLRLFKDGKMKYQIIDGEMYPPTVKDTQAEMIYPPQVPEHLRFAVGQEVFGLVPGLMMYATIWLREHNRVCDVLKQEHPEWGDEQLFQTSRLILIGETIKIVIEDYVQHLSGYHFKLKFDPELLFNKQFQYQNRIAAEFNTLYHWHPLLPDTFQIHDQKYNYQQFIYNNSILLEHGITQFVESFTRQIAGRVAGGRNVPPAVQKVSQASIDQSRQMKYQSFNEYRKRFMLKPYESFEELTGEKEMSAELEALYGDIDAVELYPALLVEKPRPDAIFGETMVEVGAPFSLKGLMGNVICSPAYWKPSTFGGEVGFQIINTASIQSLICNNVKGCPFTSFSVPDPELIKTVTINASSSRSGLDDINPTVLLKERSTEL
In words: Inhibition of human COX2.

Data set [6] deals with Trypanosoma brucei brucei. The data set is described as follows: microbe, parasite or virus in culture. The conditions noted are these: 48 h.
Data set [7] deals with Trypanosoma brucei brucei. The conditions noted are these: 1 uM.
The test system of data set [8] is Trypanosoma brucei brucei. As to conditions: 100 nM.
Data set [9] concerns Trypanosoma brucei brucei. As to conditions: 1 uM. This is another data set of the same source.
The test system of data set [10] is Trypanosoma brucei brucei. The conditions noted are these: 100 nM. The source holds these as a separate data set.

We go through 16 molecules from ChEMBL document CHEMBL1154925 (Bioorg Med Chem Lett, 2010).

The source made the active and inactive calls. No cut-off for these calls is given here.

`COc1cc([C@@H]2c3cc4c(cc3[C@H](OC(=O)CCC(=O)O)[C@H]3COC(=O)[C@H]23)OCO4)cc(OC)c1OC` [SUCCINYLPODOPHYLLOTOXIN]: in data set [1], the half-life was > 24 h. Also, the IC50 was > 4000 nM in data set [2], > 4000 nM in data set [3], 76 nM in the data set with HEK293 and 100 nM in the data set with Raji.

For `COc1ccc2c(c1)c(CC(=O)NCCCCCNC(=O)CCC(=O)O[C@@H]1c3cc4c(cc3[C@H](c3cc(OC)c(OC)c(OC)c3)[C@@H]3C(=O)OC[C@H]31)OCO4)c(C)n2C(=O)c1ccc(Cl)cc1`, the inhibition entry in data set [4] and in [5] was “inactive” throughout. In addition, in data set [1], the half-life is > 24 h. The figures for the concentration for half-maximal inhibition (IC50) (in data set [2]; in the data set on Raji) were > 4000 nM and 280 nM, respectively.

With `COc1cc([C@H]2c3cc4c(cc3[C@@H](OC(=O)CCC(=O)NCCCCNC(=O)[C@@H](C)c3ccc(CC(C)C)cc3)[C@@H]3COC(=O)[C@@H]23)OCO4)cc(OC)c1OC`, the half-life in data set [1] is > 24 h. Further, the IC50 in data set [2] is > 4000 nM; in data set [3] it was > 4000 nM; in the data set on HEK293 it was 160 nM; with Raji it was 170 nM.

For `COc1ccc2c(c1)c(CC(=O)O)c(C)n2C(=O)c1ccc(Cl)cc1` [INDOMETHACIN], the half-life in data set [1] is > 24 h. In addition, the IC50 (with HEK293; in the data set on Raji; in [6]) was > 50000 nM each time.

As to `COc1ccc2cc([C@@H](C)C(=O)NCCCCNC(=O)CCC(=O)O[C@@H]3c4cc5c(cc4[C@H](c4cc(OC)c(OC)c(OC)c4)[C@@H]4C(=O)OC[C@H]43)OCO5)ccc2c1`, the half-life in [1] is > 24 h. Moreover, the IC50 in data set [2] was > 4000 nM; in data set [3] it was > 4000 nM; in the data set with HEK293, 330 nM; with Raji it was 430 nM.

For `COc1ccc2c(c1)c(CC(=O)N1CCN(C(=O)CCC(=O)O[C@@H]3c4cc5c(cc4[C@H](c4cc(OC)c(OC)c(OC)c4)[C@@H]4C(=O)OC[C@H]43)OCO5)CC1)c(C)n2C(=O)c1ccc(Cl)cc1`, the inhibition entry in [4] and in data set [5] was “inactive” each time. Further, the half-life in data set [1] was > 24 h. The IC50 in the data set on HEK293 was 520 nM; with Raji it was 510 nM.

`COc1ccc2c(c1)c(CC(=O)NCCOC(=O)CCC(=O)O[C@@H]1c3cc4c(cc3[C@H](c3cc(OC)c(OC)c(OC)c3)[C@@H]3C(=O)OC[C@H]31)OCO4)c(C)n2C(=O)c1ccc(Cl)cc1`: the inhibition result in data set [4] and in data set [5] was “inactive” each time. The half-life in [1] is > 24 h. The IC50 came to 860 nM with HEK293 and 1300 nM in the data set with Raji.

Turning to `COc1cc([C@H]2c3cc4c(cc3[C@@H](OC(=O)CCC(=O)NCCCCNC(=O)[C@@H](C)c3cccc(C(=O)c5ccccc5)c3)[C@@H]3COC(=O)[C@@H]23)OCO4)cc(OC)c1OC`, in data set [1], the half-life is > 24 h. Moreover, the half-inhibitory concentration (IC50) is > 4000 nM in data set [2], > 4000 nM in [3], > 50000 nM in the data set on HEK293 and > 50000 nM in the data set with Raji.

As to `COc1ccc2c(c1)c(CCNC(=O)CCC(=O)O[C@@H]1c3cc4c(cc3[C@H](c3cc(OC)c(OC)c(OC)c3)[C@@H]3C(=O)OC[C@H]31)OCO4)c(C)n2Cc1ccc(Br)cc1`, in data set [1], the half-life was > 24 h. Moreover, the 50% inhibitory concentration (IC50) in data set [2] was > 4000 nM; in data set [3], > 4000 nM; with HEK293, 240 nM; with Raji, 420 nM.

`CO[C@@H](/C(C)=C/C=C/C(C)=C/c1coc(C)n1)[C@@H](C)[C@@H]1C[C@H](O)[C@@]2(C)O[C@@H]2/C=C/[C@@H](C)[C@H]2C[C@H](CC(=O)O2)C[C@@H]2O[C@H]2C(=O)O1` [RHIZOXIN]: in data set [1], the half-life is > 24 h. Besides, the inhibition result in data set [7] and in data set [8] was “Active” throughout. For the same molecule, the concentration for half-maximal inhibition (IC50) in the data set on HEK293 was found to be 350 nM; in the data set on Raji it was 340 nM.

Regarding `COc1ccc2c(c1)c(CC(=O)NCCCCNC(=O)CCC(=O)O[C@@H]1c3cc4c(cc3[C@H](c3cc(OC)c(OC)c(OC)c3)[C@@H]3C(=O)OC[C@H]31)OCO4)c(C)n2C(=O)c1ccc(Cl)cc1`, the inhibition entry in [4] and in data set [5] was “inactive” in each case. Further, in [1], the half-life is > 24 h. Further, the IC50 in data set [3] was found to be 295 nM; in the data set on HEK293 it was 160 nM; in the data set with Raji, 120 nM. In addition, the inhibition entry in data set [9] and in [10] was “Active” each time.

Turning to `COc1cc([C@H]2c3cc4c(cc3[C@@H](OC(=O)CCC(=O)NCCCCNC(=O)[C@@H](C)c3ccc(-c5ccccc5)c(F)c3)[C@@H]3COC(=O)[C@@H]23)OCO4)cc(OC)c1OC`, the half-life in data set [1] is > 24 h. Moreover, the half-inhibitory concentration (IC50) in data set [2] is > 4000 nM; in data set [3] it was > 4000 nM; in the data set on HEK293 it was 180 nM; in the data set with Raji, 180 nM.

In the case of `COc1ccc(CCNC(=O)CCC(=O)O[C@@H]2c3cc4c(cc3[C@H](c3cc(OC)c(OC)c(OC)c3)[C@@H]3C(=O)OC[C@H]32)OCO4)cc1`, in data set [1], the half-life was > 24 h. Further, the half-maximal inhibitory concentration (IC50) in data set [2] is > 4000 nM; in [3], > 4000 nM; in the data set with HEK293 it was 79 nM; in the data set on Raji it was 130 nM.

In the case of `COc1cc([C@H]2c3cc4c(cc3[C@@H](OC(=O)CCC(=O)NC[C@H](C)c3ccccc3)[C@@H]3COC(=O)[C@@H]23)OCO4)cc(OC)c1OC`, the half-life in data set [1] is > 24 h. The IC50 in [2] is > 4000 nM; in data set [3], > 4000 nM; in the data set with HEK293, 360 nM; in the data set on Raji, 540 nM.

For `COc1cc([C@@H]2c3cc4c(cc3[C@H](O)[C@H]3COC(=O)[C@H]23)OCO4)cc(OC)c1OC` [PODOFILOX], the half-life in [1] is > 24 h. Also, the half-maximal inhibitory concentration (IC50) is > 4000 nM in data set [2], > 4000 nM in data set [3], 17 nM in the data set with HEK293 and 18 nM in the data set with Raji.

Turning to `COc1cc([C@H]2c3cc4c(cc3[C@@H](OC(=O)CCC(=O)NCc3ccc(NS(=O)(=O)c5cccc6c(N(C)C)cccc56)cc3)[C@@H]3COC(=O)[C@@H]23)OCO4)cc(OC)c1OC`, the half-life in data set [1] was > 24 h. In addition, the IC50 is > 4000 nM in data set [2], > 4000 nM in [3] and 37 nM in the data set with Raji.

The half-life is how long it takes for the measured level to halve. The term IC50 denotes the midpoint of a concentration-inhibition curve. Low readings indicate greater potency, high ones weaker potency.
